Laboratory results taken from patent US20240327400A1, “COMPOSITIONS AND METHODS FOR MODULATING HAIR GROWTH” (The Regents of the University Of California, priority 2020, published 2024).

Test system: Lactate dehydrogenase (LDH) activity
Assay: LDH activity assay on human skin lysate (Ldh platereader protocol)
Format: biochemical
Conditions: human skin lysate pretreated with benzil prior to incubation with MPC inhibitors; FIG. 7
Procedure: Human skin samples were homogenized with a Benchmark BeadBlaster24R in 500 μl of Pierce RIPA Lysis and Extraction buffer (Thermo Scientific Cat No: 89900), centrifuged at 10,000 g for 15 minutes at 4° C. to remove insoluble material, and the soluble fraction quantified by Pierce BCA assay (Thermo Scientific Cat No: 23225). Lactate dehydrogenase activity was quantified using a Sigma Aldrich Lactate Dehydrogenase Activity Assay Kit (Catalog No: MAK066). Briefly, 10 μg of sample was loaded per well in a 96 well plate along with 20 uM of Pelage compounds and pre-incubated at 37° C. for 30 minutes before addition of Ldh assay master mix. Using a Biotek Synergy HTX multi-mode reader, the plate was incubated at 37° C. and absorbance measurements at 450 nm (A450) were taken every 3 minutes for 30 minutes. The LDH activity of each sample was quantified by calculating the AA450 over time.

effect on LDH activity after pretreatment with a carboxylesterase inhibitor (benzil): no effect
SMILES: N#C/C(=C\c1cn(-c2ccccc2)c2ccccc12)C(=O)O [UK5099]
